The source of these data is ChEMBL document CHEMBL5053494, “Novel halogenated arylvinyl-1,2,4 trioxanes as potent antiplasmodial as well as anticancer agents: Synthesis, bioevaluation, structure-activity relationship and in-silico studies” (Eur J Med Chem, 2021).

Calls of active or inactive are those of the source. The calls are words filed in the database; no cut-off is given here.

Series [1] has as its system BEAS-2B. Kind of series: Anticancer activity against human BEAS-2B cells assessed as cell growth inhibition measured for 72 hrs by MTT assay. The series is classed as functional, cell-based. Background: Formazan colour is commonly taken as a measure of viable cells.
Series [2] deals with HepG2. Kind of series: Anticancer activity against human HepG2 cells assessed as cell growth inhibition measured for 72 hrs by MTT assay. The series is classed as functional, cell-based. As to conditions: HepG2, 72 h.
The subject of series [3] is Plasmodium berghei. Kind of series: Antimalarial activity against Plasmodium berghei ANKA infected in Balb/c mouse assessed as suppression of parasitemia at 50 mg/kg, po administered for 4 days by microscopic analysis. In kind it is functional. To be noted: time 4 day.
Series [4] deals with A549. Briefly: Anticancer activity against human A549 cells assessed as cell growth inhibition measured for 72 hrs by MTT assay. In kind it is functional, cell-based. As to conditions: A549, 72 h.
The test system of series [5] is Plasmodium berghei. Kind of series: Antimalarial activity against Plasmodium berghei ANKA infected in Balb/c mouse assessed as suppression of parasitemia at 50 mg/kg, ip administered for 4 days by microscopic analysis. In kind it is functional. To be noted: time 4 day.
The subject of series [6] is L02. Kind of series: Anticancer activity against human L02 cells assessed as cell growth inhibition measured for 72 hrs by MTT assay. In kind it is functional, cell-based. As to conditions: L02, 72 h.
Series [7] in a line: Selectivity ratio of IC50 for anticancer activity against human L02 cells to IC50 for anticancer activity against human HepG2 cells. The series is classed as toxicity, cell-based. As to conditions: L02 cells versus HepG2 cells, read-out: Ratio IC50.
A short description of series [8]: Cytotoxicity against human HEK293 cells assessed as cell viability measured for 24 hrs by MTT assay. The series is classed as cell-based.
Series [9] has as its system Plasmodium falciparum. Briefly: Antiplasmodial activity against artemisinin-resistant Plasmodium falciparum Cam 3.1 R539 assessed as growth inhibition by SYBER green 1 dye based fluorescence assay. In kind it is functional, organism-based.
The subject of series [10] is Plasmodium falciparum. Kind of series: Antiplasmodial activity against ring stage chloroquine-resistant Plasmodium falciparum Cam 3.1 R539 assessed as percentage survival at 70 nM for 6 hrs by ring stage survival assay. In kind it is functional.
Series [11] has as its system Plasmodium falciparum. Briefly: Antiplasmodial activity against trophozoite stage chloroquine-resistant Plasmodium falciparum INDO assessed as parasite killing for 0 to 4 hrs by stage specific inhibition assay relative to control. In kind it is functional. More on the design: scale not given: the % may be the effect or the level left. As to conditions: time 0-4 hrs.

The subject of series [12] is Plasmodium falciparum. Briefly: Antiplasmodial activity against ring stage chloroquine-resistant Plasmodium falciparum INDO assessed as percentage survival at 70 nM for 6 hrs by ring stage survival assay. The series is classed as functional, organism-based.
The nature of series [13]: Selectivity ratio of IC50 for anticancer activity against human BEAS-2B cells to IC50 for anticancer activity against human A549 cells. In kind it is toxicity, cell-based. As to conditions: BEAS-2B cells versus A549 cells, read-out: Ratio IC50.
Series [14] has as its system Plasmodium falciparum. Briefly: Antiplasmodial activity against ring stage chloroquine-resistant Plasmodium falciparum Cam 3.1 R539 assessed as percentage survival at 700 nM for 6 hrs by ring stage survival assay relative to control. The series is classed as functional.
The test system of series [15] is Plasmodium falciparum. Briefly: Antiplasmodial activity against schizont stage chloroquine-resistant Plasmodium falciparum INDO assessed as parasite killing for 0 to 3 hrs by stage specific inhibition assay relative to control. In kind it is functional, organism-based. To be noted: time 0-3 hrs.
The subject of series [16] is Plasmodium falciparum. Briefly: Antiplasmodial activity against trophozoite stage chloroquine-resistant Plasmodium falciparum INDO assessed as parasite killing for 4 to 8 hrs by stage specific inhibition assay relative to control. As to conditions: time 4-8 hrs. The series is classed as functional, organism-based.
The test system of series [17] is Plasmodium falciparum. Briefly: Resistance index, ratio of IC50 for antiplasmodial activity against artemisinin-resistant Plasmodium falciparum Cam 3.1 R539 to IC50 for antiplasmodial activity against chloroquine-resistant Plasmodium falciparum INDO. In kind it is functional.
Series [18] is described as follows: Selectivity index, ratio of CC50 for human HEK293 cells to IC50 for antiplasmodial activity against chloroquine-resistant Plasmodium falciparum INDO. In kind it is toxicity. As to conditions: HEK293 cells versus Plasmodium falciparum INDO.
Series [19] deals with Plasmodium falciparum. Briefly: Antiplasmodial activity against chloroquine-resistant Plasmodium falciparum INDO assessed as growth inhibition by SYBER green 1 dye based fluorescence assay. In kind it is functional, organism-based.
Series [20] deals with Plasmodium falciparum. Kind of series: Antiplasmodial activity against ring stage chloroquine resistant Plasmodium falciparum INDO assessed as percentage survival at 700 nM for 6 hrs by ring stage survival assay. The series is classed as functional.
For series [21], the system named is Plasmodium falciparum. Kind of series: Antiplasmodial activity against ring stage chloroquine-resistant Plasmodium falciparum INDO assessed as ring stage parasite killing for 12 hrs by stage specific inhibition assay relative to control. In kind it is functional. More on the design: scale not given: the % may be the effect or the level left.
Series [22] deals with Plasmodium falciparum. Kind of series: Antiplasmodial activity against ring stage chloroquine-resistant Plasmodium falciparum INDO assessed as ring stage parasite killing for 0 to 6 hrs by stage specific inhibition assay relative to control. In kind it is functional. Set-up: scale not given: the % may be the effect or the level left. As to conditions: time 0-6 hrs.
Series [23] concerns BEAS-2B. Briefly: Induction of apoptosis in human BEAS-2B cells assessed as late apoptotic cells measured after 24 hrs by annexinV-FITC/propidium iodide staining based flow cytometry. The series is classed as functional. (A flow cytometer gives signals particle by particle.)
Series [24] has as its system A549. Briefly: Induction of apoptosis in human A549 cells assessed as early apoptotic cells measured after 24 hrs by annexinV-FITC/propidium iodide staining based flow cytometry. The series is classed as functional.
For series [25], the system named is Plasmodium falciparum. Briefly: Antiplasmodial activity against schizont stage chloroquine-resistant Plasmodium falciparum INDO assessed as parasite killing for 6 to 9 hrs by stage specific inhibition assay relative to control. The series is classed as functional. More on the design: scale not given: the % may be the effect or the level left. To be noted: time 6-9 hrs.

Series [26] deals with Plasmodium falciparum. Kind of series: Antiplasmodial activity against schizont stage chloroquine-resistant Plasmodium falciparum INDO assessed as parasite killing for 9 to 12 hrs by stage specific inhibition assay relative to contol. The series is classed as functional. More on the design: scale not given: the % may be the effect or the level left. As to conditions: time 9-12 hrs.

The test system of series [27] is Plasmodium falciparum. Kind of series: Antiplasmodial activity against schizont stage chloroquine-resistant Plasmodium falciparum INDO assessed as parasite killing for 3 to 6 hrs by stage specific inhibition assay relative to control. The series is classed as functional. More on the design: scale not given: the % may be the effect or the level left. To be noted: time 3-6 hrs.

In the case of `CCN(CC)CCCC(C)Nc1ccnc2cc(Cl)ccc12` (configuration not stated) [CHLOROQUINE], the IC50 in series [1] turned out to be 3.07 µM; in series [2] it was 49 µM; in series [4], 100 µM; in [6], 15 µM. The Activity in [3] and in series [5] was 100% in each case.

For the compound `C=C(c1ccc(OC)c(F)c1)C1COC2(OO1)C1CC3CC(C1)CC2C3` (configuration not stated), the IC50 amounted to 61.2 µM in series [1]; 0.0401 µM in [9]; 32.1 µM in series [2]; 48.2 µM in [4]; 0.00448 µM in series [19]; 11.9 µM in series [6]. Moreover, the selectivity ratio in series [7] came to 0.57; in series [13] it was 0.68; in [18] it was 3970. Besides, the CC50 at 24 h in [8] was determined as 15.9 µM. The Activity in series [10] amounted to 30%; in series [11], 50%; in series [14], 6%; in [3] it was 100%; in series [5] it was 100%; in [20], 100%. Also, the Activity stood at 100% in series [21] and 38% in series [22]. Moreover, the outcome in series [12] was inactive. Besides, the result in series [15] and in [16] was Active. Further, the “Ratio IC50” value in series [17] stood at 8.95.

Take `C[C@@H]1CC[C@H]2[C@@H](C)C(=O)O[C@@H]3O[C@@]4(C)CC[C@@H]1[C@]32OO4` [ARTEMISININ]: the IC50 in series [1] was 7.53 µM; in series [9] it was 0.0135 µM; in series [2] it was 4.09 µM; in series [4], 9.85 µM; in series [19], 0.0066 µM; in series [6], 8.25 µM. Further, the figures for the selectivity ratio in series [7], in series [13] and in [18] were 2.01, 0.76 and 4330, respectively. Besides, the CC50 at 24 h in series [8] was greater than 26 µM. Besides, the Activity is 50% in series [10], 20% in series [14] and 10% in series [20]. The result in series [12] was inactive. For the same compound, the “Ratio IC50” value in [17] is 2.05.

As to `C=C(c1ccc(Cl)c(Cl)c1Cl)C1COC2(CCCC2)OO1` (configuration not stated), the Activity in [23] was found to be 8.6%; in series [24], 93.6%. Also, the IC50 in series [1] was found to be 11.5 µM; in [2] it was 8.45 µM; in series [4], 0.69 µM; in series [19] it was 0.0206 µM; in series [6], 1.19 µM. Further, the selectivity ratio in [7] stood at 0.13; in series [13], 16.7; in [18] it was 72. Also, the CC50 at 24 h in [8] is 1.44 µM.

For `C=C(c1ccc(Cl)cc1Cl)C1COC2(CCCCC2)OO1` (configuration not stated), the Activity amounted to 4.5% in series [23] and 78% in series [24]. Further, the IC50 amounted to 16.7 µM in [1]; 0.109 µM in series [9]; 17.6 µM in series [2]; 0.81 µM in series [4]; 0.018 µM in series [19]; 3.69 µM in series [6]. For the same compound, the selectivity ratio in series [7] came out at 0.097; in [13], 20.6; in series [18], 145. The CC50 at 24 h in series [8] stood at 2.47 µM. The “Ratio IC50” value in series [17] is 6.09.

As for `C=C(c1ccc(Cl)cc1Cl)C1COC2(CCCC2)OO1` (configuration not stated), the IC50 in series [1] amounted to 17.4 µM; in [9], 0.0707 µM; in series [2] it was 15.7 µM; in series [4], 1.43 µM; in series [19], 0.00969 µM; in [6], 2.55 µM. Further, the selectivity ratio in [7] worked out at 0.2; in [13], 12.2; in [18], 1350. For the same compound, in series [8], the CC50 at 24 h worked out at 12.1 µM. Besides, the Activity is listed as 100% in series [10]; 25% in series [11]; 100% in series [25]; 20% in series [14]; 0% in series [3]; 100% in series [26]. Besides, the Activity is recorded as 100% in series [5]; 60% in [27]; 10% in series [20]; 100% in [21]; 66% in series [22]. For the same compound, in [12], the result was inactive. Moreover, the outcome in [15] and in [16] was Active. Moreover, the “Ratio IC50” value in series [17] came out at 7.29.

By IC50 is commonly meant the point on the concentration scale where inhibition reaches its midpoint. In general, CC50 refers to the concentration giving 50% cytotoxicity.
